# Patent US20240360113A1, “AMINOARYL-INTEGRIN AGONISTS COMPOUNDS” (Texas Heart Institute, priority 2021, published 2024)
# Assays:
# α4β1/VCAM-1 = biological target: T1, α4β1/VCAM-1 (Homo sapiens, UniProt P05556+P13612); assay: Static cell adhesion assay, Jurkat cells on VCAM-1 (VLA-4 agonist activity); type: cell-based; conditions: EC50 relative to THI0349 (average 11 uM) run on the same plate; Jurkat cells, 50% FBS
# T1 construct: The Jurkat (VCAM-1 assays) and HSB (ICAM-1 assays) cell lines were obtained from American Type Culture Collection; endogenous in cells; host or cells: Jurkat (ATCC)
# Outline: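 Calcein-labelled Jurkat cells (2×10^5/well) were added to wells coated with a sub-optimal level of human VCAM-1 (0.5 μg/mL) in PBS, 1 mM MgCl2, 50% FBS with compound in 1% DMSO. After 30 min at 37° C. and washing, adherent-cell fluorescence was read. EC50 was the concentration giving 50% of maximal response.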
# αLβ2/ICAM-1 = biological target: T2, αLβ2/ICAM-1 (Homo sapiens, UniProt P05107+P20701); assay: Static cell adhesion assay, HSB cells on ICAM-1 (LFA-1; LAD); type: cell-based; conditions: RFU of compound / RFU of THI0349, both at the same concentration
# T2 construct: The Jurkat (VCAM-1 assays) and HSB (ICAM-1 assays) cell lines were obtained from American Type Culture Collection; endogenous in cells; host or cells: HSB (ATCC)
# Outline: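 HSB cells were labeled with calcein-AM for 30 minutes, washed, resuspended in binding buffer (PBS with 2 mM MgCl2, 5 mM EGTA, 50% FBS) and plated at 2×10^5 cells/well in triplicate onto 96-well plates coated overnight at 4° C with ICAM-1 (5 μg/mL in 50 μL TBS) and blocked with 2% BSA. Compounds were tested in 1% DMSO. After 30 minutes at 37° C and three washes, adherent cells were lysed and fluorescence was read; results are compound RFU divided by THI0349 RFU.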
# T2 sequence (P20701 26-1170): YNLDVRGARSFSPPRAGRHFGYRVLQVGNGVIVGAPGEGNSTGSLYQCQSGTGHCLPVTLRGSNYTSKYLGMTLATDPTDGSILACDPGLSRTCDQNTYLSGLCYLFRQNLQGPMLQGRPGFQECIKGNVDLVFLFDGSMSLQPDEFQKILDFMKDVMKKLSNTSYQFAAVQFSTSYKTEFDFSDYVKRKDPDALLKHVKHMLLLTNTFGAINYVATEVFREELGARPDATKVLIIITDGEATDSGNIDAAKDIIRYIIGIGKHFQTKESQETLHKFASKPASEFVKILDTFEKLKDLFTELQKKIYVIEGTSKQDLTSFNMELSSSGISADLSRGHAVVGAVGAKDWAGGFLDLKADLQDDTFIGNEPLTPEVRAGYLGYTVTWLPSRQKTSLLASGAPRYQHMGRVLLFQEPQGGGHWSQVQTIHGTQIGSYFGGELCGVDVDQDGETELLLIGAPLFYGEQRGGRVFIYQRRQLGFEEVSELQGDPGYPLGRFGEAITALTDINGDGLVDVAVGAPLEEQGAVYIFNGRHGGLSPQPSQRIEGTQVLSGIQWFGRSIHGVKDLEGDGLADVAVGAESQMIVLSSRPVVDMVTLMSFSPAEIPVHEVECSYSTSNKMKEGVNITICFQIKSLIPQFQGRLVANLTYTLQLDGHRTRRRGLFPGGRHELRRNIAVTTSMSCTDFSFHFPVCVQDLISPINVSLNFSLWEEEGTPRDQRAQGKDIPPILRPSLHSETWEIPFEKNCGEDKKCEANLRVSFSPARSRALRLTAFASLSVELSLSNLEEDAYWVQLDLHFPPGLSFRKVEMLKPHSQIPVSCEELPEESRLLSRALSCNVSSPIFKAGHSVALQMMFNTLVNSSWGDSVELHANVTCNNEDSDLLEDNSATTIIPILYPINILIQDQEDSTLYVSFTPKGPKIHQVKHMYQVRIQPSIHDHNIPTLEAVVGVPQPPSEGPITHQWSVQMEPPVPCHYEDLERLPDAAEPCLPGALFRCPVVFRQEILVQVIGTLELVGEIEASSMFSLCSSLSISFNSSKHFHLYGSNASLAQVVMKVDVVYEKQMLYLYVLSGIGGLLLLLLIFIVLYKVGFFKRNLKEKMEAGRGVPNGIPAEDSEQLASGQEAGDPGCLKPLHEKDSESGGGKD
# T2 sequence (P05107 23-769): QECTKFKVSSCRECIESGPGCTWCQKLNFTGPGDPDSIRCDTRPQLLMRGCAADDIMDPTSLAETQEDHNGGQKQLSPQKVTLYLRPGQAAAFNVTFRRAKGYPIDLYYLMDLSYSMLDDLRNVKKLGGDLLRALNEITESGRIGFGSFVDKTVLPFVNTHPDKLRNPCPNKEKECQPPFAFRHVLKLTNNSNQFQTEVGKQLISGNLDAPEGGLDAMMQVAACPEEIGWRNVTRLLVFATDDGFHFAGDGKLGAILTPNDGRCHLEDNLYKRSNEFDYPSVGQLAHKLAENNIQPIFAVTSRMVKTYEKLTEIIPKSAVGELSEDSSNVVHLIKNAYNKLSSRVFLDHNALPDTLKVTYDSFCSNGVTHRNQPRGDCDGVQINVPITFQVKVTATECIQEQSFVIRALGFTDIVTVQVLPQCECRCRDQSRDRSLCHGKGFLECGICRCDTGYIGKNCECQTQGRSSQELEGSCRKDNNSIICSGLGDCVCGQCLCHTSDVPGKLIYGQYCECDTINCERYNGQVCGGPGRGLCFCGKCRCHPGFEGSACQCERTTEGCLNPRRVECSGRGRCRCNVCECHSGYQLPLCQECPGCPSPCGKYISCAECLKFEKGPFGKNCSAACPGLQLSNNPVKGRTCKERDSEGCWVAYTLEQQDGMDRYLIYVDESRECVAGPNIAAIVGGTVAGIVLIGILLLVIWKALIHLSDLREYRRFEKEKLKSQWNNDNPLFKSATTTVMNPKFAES
# T1 sequence (P13612 34-1032): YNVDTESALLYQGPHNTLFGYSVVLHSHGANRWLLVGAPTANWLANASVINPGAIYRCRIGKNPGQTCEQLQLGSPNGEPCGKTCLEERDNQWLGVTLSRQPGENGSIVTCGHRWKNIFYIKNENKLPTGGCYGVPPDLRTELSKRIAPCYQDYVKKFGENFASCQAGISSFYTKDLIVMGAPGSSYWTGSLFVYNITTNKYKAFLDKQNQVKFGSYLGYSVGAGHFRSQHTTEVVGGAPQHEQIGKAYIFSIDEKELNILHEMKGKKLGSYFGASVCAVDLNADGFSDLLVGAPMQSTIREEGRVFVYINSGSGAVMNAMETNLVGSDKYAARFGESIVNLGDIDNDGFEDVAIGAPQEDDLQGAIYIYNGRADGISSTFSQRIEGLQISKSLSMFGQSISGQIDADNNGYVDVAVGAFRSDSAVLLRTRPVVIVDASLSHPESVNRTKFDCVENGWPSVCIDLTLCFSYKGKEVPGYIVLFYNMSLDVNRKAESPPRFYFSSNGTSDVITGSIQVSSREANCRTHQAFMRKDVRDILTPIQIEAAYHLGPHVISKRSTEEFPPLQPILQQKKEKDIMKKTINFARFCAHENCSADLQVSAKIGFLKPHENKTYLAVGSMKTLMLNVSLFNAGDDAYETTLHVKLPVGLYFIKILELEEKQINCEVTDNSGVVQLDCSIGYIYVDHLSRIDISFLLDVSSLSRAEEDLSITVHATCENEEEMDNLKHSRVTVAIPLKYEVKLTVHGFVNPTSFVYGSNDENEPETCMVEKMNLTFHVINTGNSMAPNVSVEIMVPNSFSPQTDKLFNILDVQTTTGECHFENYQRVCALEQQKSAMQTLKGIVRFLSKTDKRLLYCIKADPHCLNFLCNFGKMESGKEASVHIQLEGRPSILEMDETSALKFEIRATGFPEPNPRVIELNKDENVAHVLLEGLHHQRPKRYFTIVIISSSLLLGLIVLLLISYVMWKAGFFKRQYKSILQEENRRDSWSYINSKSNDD
# T1 sequence (P05556 21-798): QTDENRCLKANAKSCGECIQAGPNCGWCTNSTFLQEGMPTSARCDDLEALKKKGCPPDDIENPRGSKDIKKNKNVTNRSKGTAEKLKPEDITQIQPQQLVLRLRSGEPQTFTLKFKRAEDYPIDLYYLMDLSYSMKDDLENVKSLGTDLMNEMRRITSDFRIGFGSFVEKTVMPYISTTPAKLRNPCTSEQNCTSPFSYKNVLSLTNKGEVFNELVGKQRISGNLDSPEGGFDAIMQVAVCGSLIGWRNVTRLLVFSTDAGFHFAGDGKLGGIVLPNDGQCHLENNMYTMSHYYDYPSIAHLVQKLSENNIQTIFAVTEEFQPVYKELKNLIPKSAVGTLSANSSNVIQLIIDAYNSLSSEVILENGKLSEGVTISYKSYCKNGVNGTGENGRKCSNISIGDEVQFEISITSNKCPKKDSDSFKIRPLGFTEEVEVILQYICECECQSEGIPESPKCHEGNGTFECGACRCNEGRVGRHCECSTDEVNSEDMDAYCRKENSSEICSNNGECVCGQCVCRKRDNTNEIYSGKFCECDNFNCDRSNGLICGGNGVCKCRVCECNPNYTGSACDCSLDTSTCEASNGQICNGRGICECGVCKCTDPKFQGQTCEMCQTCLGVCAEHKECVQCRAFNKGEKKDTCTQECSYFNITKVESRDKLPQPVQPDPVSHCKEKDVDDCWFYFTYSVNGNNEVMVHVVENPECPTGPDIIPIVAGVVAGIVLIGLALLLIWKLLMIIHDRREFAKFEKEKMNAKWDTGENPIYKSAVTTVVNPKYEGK
LAD Raw Fluorescence Units against LFA-1; Dose 3 µM; Ratio of raw counts Compound/THI0349 (αLβ2/ICAM-1),Compound,Group against VCAM (α4β1/VCAM-1)
0.03,"COc1cccc(CN(Cc2ccc(-n3cccn3)cc2)c2nc(C)cs2)c1 [Compound 98, N-(4-(1H-pyrazol-1-yl)benzyl)-N-(3-methoxybenzyl)-4-methylthiazol-2-amine]",III (Group III more than five times the EC50 of THI0349)
0.05,"COc1cccc(CN(C)c2nc(C)cs2)c1 [Compound 100, N-(3-methoxybenzyl)-N,4-dimethylthiazol-2-amine]",III (Group III more than five times the EC50 of THI0349)
0.03,"COC(=O)c1nc(N(Cc2cccc(OC)c2)Cc2cccc(OC)c2)sc1C [Compound 101, methyl 2-(bis(3-methoxybenzyl)amino)-5-methylthiazole-4-carboxylate]",II (Group II is more than twice that of THI0349 but less than five times THI0349's EC50)
0.5,"CCOC(=O)c1csc(N(Cc2cccc(OC)c2)Cc2cccc(OC)c2)n1 [Compound 102, ethyl 2-(bis(3-methoxybenzyl)amino)thiazole-4-carboxylate]",II (Group II is more than twice that of THI0349 but less than five times THI0349's EC50)
0.28,"COc1cccc(COCc2csc(N(Cc3ccc(-n4cccn4)cc3)Cc3cccc(OC)c3)n2)c1 [Compound 104, N-(4-(1H-pyrazol-1-yl)benzyl)-N-(3-methoxybenzyl)-4-((3-methoxybenzyloxy)methyl)thiazol-2-amine]",I (Group I maintains at least the same potency or better up to more than twice that of the EC50 of THI0349 ran on the same plate)
0.05,"CCOC(=O)c1csc(N(C)Cc2cccc(OC)c2)n1 [Compound 106, ethyl 2-((3-methoxybenzyl)(methyl)amino)thiazole-4-carboxylate]",III (Group III more than five times the EC50 of THI0349)
0.06,"COc1cccc(CN(C)c2nc(CN3CCOCC3)cs2)c1 [Compound 111, N-(3-methoxybenzyl)-N-methyl-4-(morpholinomethyl)thiazol-2-amine]",III (Group III more than five times the EC50 of THI0349)
0.04,"COc1cccc(COCc2csc(N(C)Cc3cccc(OC)c3)n2)c1 [Compound 112, N-(3-methoxybenzyl)-4-((3-methoxybenzyloxy)methyl)-N-methylthiazol-2-amine]",III (Group III more than five times the EC50 of THI0349)
0.64,"CCOC(=O)c1csc(N(Cc2ccc(-n3ccnc3)cc2)Cc2cccc(OC)c2)n1 [Compound 113, ethyl 2-((4-(1H-imidazol-1-yl)benzyl)(3-methoxybenzyl)amino)thiazole-4-carboxylate]",II (Group II is more than twice that of THI0349 but less than five times THI0349's EC50)
0.39,"CCOC(=O)c1csc(N(Cc2cccc(OC)c2)Cc2ccc3ncccc3c2)n1 [Compound 114, ethyl 2-((3-methoxybenzyl)(quinolin-6-ylmethyl)amino)thiazole-4-carboxylate]",II (Group II is more than twice that of THI0349 but less than five times THI0349's EC50)
0.09,"CCOC(=O)c1csc(N(Cc2cccc(OC)c2)Cc2ccc3[nH]ncc3c2)n1 [Compound 116, ethyl 2-(((1H-indazol-5-yl)methyl)(3-methoxybenzyl)amino)thiazole-4-carboxylate]",III (Group III more than five times the EC50 of THI0349)
0.15,"CCOC(=O)c1csc(N(Cc2cccc(OC)c2)Cc2cccc(-n3ccnc3)c2)n1 [Compound 118, ethyl 2-((3-(1H-imidazol-1-yl)benzyl)(3-methoxybenzyl)amino)thiazole-4-carboxylate]",II (Group II is more than twice that of THI0349 but less than five times THI0349's EC50)
0.2,"CCOC(=O)c1csc(N(Cc2cccc(OC)c2)Cc2cccc(-n3cccn3)c2)n1 [Compound 119, ethyl 2-((3-(1H-pyrazol-1-yl)benzyl)(3-methoxybenzyl)amino)thiazole-4-carboxylate]",II (Group II is more than twice that of THI0349 but less than five times THI0349's EC50)
0.18,"CCOC(=O)c1csc(N(Cc2cccc(OC)c2)CC(C)C)n1 [Compound 121, ethyl 2-(isobutyl(3-methoxybenzyl)amino)thiazole-4-carboxylate]",III (Group III more than five times the EC50 of THI0349)
0.75,"COc1cccc(COc2cc(C)n(N(Cc3cccc(OC)c3)Cc3cccc(OC)c3)c(=O)c2)c1 [Compound 127, 1-(bis(3-methoxybenzyl)amino)-4-((3-methoxybenzyl)oxy)-6-methylpyridin-2(1H)-one]",II (Group II is more than twice that of THI0349 but less than five times THI0349's EC50)
